Assay results: patent publication US20260091020A1, “TREATMENT OF ACUTE CANNABINOID OVERDOSE” (Anebulo Pharmaceuticals, Inc., priority 2022, published 2026)

System: central nervous system effects of THC
Test: Phase 2 randomized, double-blind, placebo-controlled THC challenge study, PD endpoints (10.5 mg THC + 50 or 100 mg Compound 1)
Assay type: in vivo, human
Conditions: 10.5 mg THC alone (THC/placebo); score of at least 20/100 on VAS feeling high scale

## CCCCCc1cc(O)c2c(c1)OC(C)(C)[C@@H]1CCC(C)=C[C@@H]21 [THC, Δ9-tetrahydrocannabinol]
  Proportion of subjects reporting feeling high: 75%
